System: murine B16-F10 melanoma cells
Assay: not given
Parameters: method as in PMID 17873839, PMID 14717847, PMID 16794334, PMID 26656314
Settings: cited from earlier work

Compound | effect on melanogenesis (in words)
O=C1C[C@@H](c2ccc(O)cc2)Oc2cc(O)cc(O)c21 [naringenin] | stimulate melanogenesis

System: tyrosinase
Assay: not given
Parameters: method as in PMID 17295516
Settings: cited from earlier work

Compound | inhibition of monophenolase and diphenolase activities of tyrosinase (in words)
O=c1c(-c2ccc(O)cc2)coc2c(O)c(O)cc(O)c12 [5,7,8,4′-tetrahydroxyisoflavone] | irreversibly inhibit
O=c1c(-c2ccc(O)cc2)coc2c(O)c(O)ccc12 [7,8,4′-trihydroxyisoflavone] | irreversibly inhibit

System: B16-F10 melanoma cells
Assay: Total melanin content assay
Assay type: cell-based, Mus musculus (mouse)
Settings: 15 μM; 72 h; relative to control
Experimental: Mus musculus (mouse) melanoma cell line, B16-F10 (ATCC® Number: CRL-6475™, Manassas, VA, USA), was cultured in complete Dulbecco′s Modified Eagle′s Medium (DMEM, phenol red-free medium) containing 10% fetal bovine serum, 25 mM glucose, 4 mM L-glutamine, 1 mM sodium pyruvate, 10 μg/mL penicillin, and 10 μg/mL streptomycin, at 37 °C, with 5% carbon dioxide (CO2) in a humidified atmosphere.
The total melanin content, produced both extracellularly and intracellularly, was determined as follows: B16-F10 cells were seeded onto a 24-well plate at a concentration of 50,000 cells/0.5 mL/well and were incubated for 24 h, followed by treatment with either the test compounds or the control (0.5% DMSO), and then incubated for 72 h. For extraction, the total produced melanin and 0.5 mL of 2 N NaOH containing 20% DMSO were added directly to the cell culture medium, mixed by pipetting and then incubated at room temperature for 1 h. The lysed cell extract was centrifuged at 13,000× g for 5 min. Finally, the supernatant was transferred to a 96-well plate and the relative melanin content was detected at 405 nm using a micro plate reader. Kojic acid and oxyresveratrol were used as positive controls.

Compound | % Melanin Content
Alpinetin [Compound 26] | 89.7 ± 0.4%

Same assay, conditions: 30 μM

Compound | effect on melanin content (in words, Figure 1)
O=c1c(-c2ccc(O)cc2)coc2cc(O)cc(O)c12 [Compound 4, Genistein] | increased the melanin content
O=C1C[C@@H](c2ccc(O)cc2)Oc2cc(O)cc(O)c21 [Compound 25, (2S)-Naringenin] | increased the melanin content
COc1cc2c(cc1O)[C@@H]1COc3cc(O)ccc3[C@@H]1O2 [Compound 27, (6aR,11aR)-3,8-Dihydroxy-9-methoxy pterocarpan] | inhibitory effect of melanogenesis

Same assay, conditions: 30 μM; 72 h; relative to control

Compound | % Melanin Content
Alpinetin [Compound 26] | 92.3 ± 1.6%

Same assay, conditions: Mus musculus, B16-F10, 15 μM; read-out: inhibition of melanogenesis

Compound | inhibition at 15 µM
COc1cc2c(cc1O)[C@@H]1COc3cc(O)ccc3[C@@H]1O2 [Compound 27, (6aR,11aR)-3,8-Dihydroxy-9-methoxy pterocarpan] | 59%

Same assay, conditions: Mus musculus, B16-F10; 15 μM; 72 h; relative to control; read-out: % Melanin Content

Compound | activity at 15 µM
O=c1c(-c2ccc(O)cc2)coc2cc(O)cc(O)c12 [Compound 4, Genistein] | 165.1 ± 1.6%
COc1cc(O)c(-c2coc3cc(O)cc(O)c3c2=O)cc1O [Compound 5, Khrinone B] | 84.1 ± 5.3%
COc1ccc([C@H]2COc3cc(O)ccc3C2=O)c(OC)c1 [Compound 14, (3S)-Sativanone] | 124 ± 4.3%
COc1ccc(C2COc3c(ccc(O)c3OC)C2)c(O)c1O [Compound 21, (3R,S)-3′-Hydroxy-8-methoxy vestitol] | 97 ± 6.3%
COc1ccc(-c2coc3cc(O)cc(O)c3c2=O)c(OC)c1O [Compound 7, Khrinone C] | 107.6 ± 0.8%
O=C1C[C@@H](c2ccc(O)cc2)Oc2cc(O)cc(O)c21 [Compound 25, (2S)-Naringenin] | 132 ± 14.5%
COc1cc2c(cc1O)[C@@H]1COc3cc(O)ccc3[C@@H]1O2 [Compound 27, (6aR,11aR)-3,8-Dihydroxy-9-methoxy pterocarpan] | 41.9 ± 0.4%

Same assay, conditions: Mus musculus, B16-F10; 30 μM; 72 h; relative to control; read-out: % Melanin Content

Compound | activity at 30 µM
O=c1c(-c2ccc(O)cc2)coc2cc(O)cc(O)c12 [Compound 4, Genistein] | 192 ± 13.9%
COc1cc(O)c(-c2coc3cc(O)cc(O)c3c2=O)cc1O [Compound 5, Khrinone B] | 34.7 ± 12.3%
COc1ccc([C@H]2COc3cc(O)ccc3C2=O)c(OC)c1 [Compound 14, (3S)-Sativanone] | 128 ± 6%
COc1ccc(C2COc3c(ccc(O)c3OC)C2)c(O)c1O [Compound 21, (3R,S)-3′-Hydroxy-8-methoxy vestitol] | 36.3 ± 0.1%
COc1ccc(-c2coc3cc(O)cc(O)c3c2=O)c(OC)c1O [Compound 7, Khrinone C] | 154 ± 9.9%
O=C1C[C@@H](c2ccc(O)cc2)Oc2cc(O)cc(O)c21 [Compound 25, (2S)-Naringenin] | 152 ± 3.8%
COc1cc2c(cc1O)[C@@H]1COc3cc(O)ccc3[C@@H]1O2 [Compound 27, (6aR,11aR)-3,8-Dihydroxy-9-methoxy pterocarpan] | 53.5 ± 0.4%

Target: T1, murine tyrosinase (Mus musculus, UniProt P11344)
T1 construct: The cells were lysed by vortex and incubated at 4 °C for 1 h to solubilize the tyrosinase enzyme; endogenous in cells; host or cells: B16-F10 melanoma cells (Triton X-100 lysate, dialyzed)
T1 sequence (P11344 19-533): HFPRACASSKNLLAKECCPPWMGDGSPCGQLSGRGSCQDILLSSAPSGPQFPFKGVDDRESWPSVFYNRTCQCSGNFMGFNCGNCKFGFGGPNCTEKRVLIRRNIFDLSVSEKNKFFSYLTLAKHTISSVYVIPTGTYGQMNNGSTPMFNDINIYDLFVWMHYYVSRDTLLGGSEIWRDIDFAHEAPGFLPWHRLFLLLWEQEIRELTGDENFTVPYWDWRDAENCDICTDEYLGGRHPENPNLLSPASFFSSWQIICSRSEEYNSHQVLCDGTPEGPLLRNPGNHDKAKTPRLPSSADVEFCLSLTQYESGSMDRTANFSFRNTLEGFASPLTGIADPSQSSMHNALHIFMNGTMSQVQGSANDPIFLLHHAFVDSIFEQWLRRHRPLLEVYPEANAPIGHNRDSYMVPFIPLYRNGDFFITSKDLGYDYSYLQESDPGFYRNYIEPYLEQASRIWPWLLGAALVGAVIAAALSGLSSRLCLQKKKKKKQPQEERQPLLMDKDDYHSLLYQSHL
Assay: Murine tyrosinase inhibitory assay (o-diphenolase activity, crude enzyme from B16-F10 melanoma cells);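 further: crude tyrosinase taken from lysed, dialyzed B16-F10 cell extract, with the inhibition reaction incubated for 2 h at 37 °C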
Assay type: biochemical
Settings: 200 μM; L-DOPA substrate

Compound | Murine Tyrosinase Inhibition, % (at 200 μM), symbol
Alpinetin [Compound 26] | - (no inhibition at 200 μM)

Same assay, conditions: 200 μM; L-DOPA substrate; read-out: Murine Tyrosinase Inhibition, % (at 200 μM)

Compound | inhibition at 200 µM
O=c1c(-c2ccc(O)cc2)coc2cc(O)cc(O)c12 [Compound 4, Genistein] | 9.9 ± 3.1%
COc1cc(O)c(-c2coc3cc(O)cc(O)c3c2=O)cc1O [Compound 5, Khrinone B] | 10.1 ± 3%
COc1ccc([C@H]2COc3cc(O)ccc3C2=O)c(OC)c1 [Compound 14, (3S)-Sativanone] | 9.5 ± 1.6%
COc1ccc(C2COc3c(ccc(O)c3OC)C2)c(O)c1O [Compound 21, (3R,S)-3′-Hydroxy-8-methoxy vestitol] | 11.4 ± 2.5%
COc1cc2c(cc1O)[C@@H]1COc3cc(O)ccc3[C@@H]1O2 [Compound 27, (6aR,11aR)-3,8-Dihydroxy-9-methoxy pterocarpan] | 29.2 ± 2.9%

Same assay, conditions: 200 μM; L-DOPA substrate; read-out: Murine Tyrosinase Inhibition, % (at 200 μM), symbol

Compound | inhibition at 200 µM
COc1ccc(-c2coc3cc(O)cc(O)c3c2=O)c(OC)c1O [Compound 7, Khrinone C] | < 0%
O=C1C[C@@H](c2ccc(O)cc2)Oc2cc(O)cc(O)c21 [Compound 25, (2S)-Naringenin] | < 0%

System: human melanoma cells (MMV II)
Assay: not given
Parameters: method as in PMID 25248426
Settings: cited from earlier work

Compound | effect on melanogenesis (in words)
O=c1c(-c2ccc(O)cc2)coc2cc(O)cc(O)c12 [Compound 4, Genistein] | melanogenesis-promoting actions

Target: mushroom tyrosinase (Agaricus bisporus, UniProt C7FF04)
Assay: Mushroom tyrosinase inhibitory assay (o-diphenolase activity, L-DOPA as substrate);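 further: enzyme and test sample preincubated 10 min at 25 °C in pH 6.8 phosphate buffer, 50% DMSO vehicle as control, enzyme-free mixture as blank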
Assay type: biochemical
Settings: 200 μM; L-DOPA substrate

Chain of mushroom tyrosinase (Agaricus bisporus, UniProt C7FF04) (G1K3P4 entry or part of it): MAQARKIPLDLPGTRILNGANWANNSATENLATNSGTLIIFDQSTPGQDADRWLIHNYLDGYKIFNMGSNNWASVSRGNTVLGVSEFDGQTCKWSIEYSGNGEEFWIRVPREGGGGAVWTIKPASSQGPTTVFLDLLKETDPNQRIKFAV
Chain of mushroom tyrosinase (Agaricus bisporus, UniProt C7FF04) (C7FF04 2-392): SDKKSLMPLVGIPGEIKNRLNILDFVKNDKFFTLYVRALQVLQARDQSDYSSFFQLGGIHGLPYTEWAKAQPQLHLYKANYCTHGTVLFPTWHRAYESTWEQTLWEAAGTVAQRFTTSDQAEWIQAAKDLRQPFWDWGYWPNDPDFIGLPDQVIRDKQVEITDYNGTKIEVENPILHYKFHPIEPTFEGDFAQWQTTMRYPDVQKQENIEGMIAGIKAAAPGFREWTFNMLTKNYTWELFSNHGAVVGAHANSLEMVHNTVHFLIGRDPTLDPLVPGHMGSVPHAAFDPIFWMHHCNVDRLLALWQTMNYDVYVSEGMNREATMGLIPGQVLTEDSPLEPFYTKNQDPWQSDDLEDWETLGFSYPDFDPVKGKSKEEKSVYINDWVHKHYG

Compound | Mushroom Tyrosinase Inhibition % Inhibition (at 200 μM)
Alpinetin [Compound 26] | 36.9 ± 0.5%

Same assay, conditions: 200 μM; L-DOPA substrate; read-out: Mushroom Tyrosinase Inhibition % Inhibition (at 200 μM)

Compound | inhibition at 200 µM
COc1cc(O)c(-c2coc3cc(O)cc(O)c3c2=O)cc1O [Compound 5, Khrinone B] | 72.7 ± 2.2%
COc1ccc(C2COc3c(ccc(O)c3OC)C2)c(O)c1O [Compound 21, (3R,S)-3′-Hydroxy-8-methoxy vestitol] | 64.1 ± 1.3%
COc1cc2c(cc1O)[C@@H]1COc3cc(O)ccc3[C@@H]1O2 [Compound 27, (6aR,11aR)-3,8-Dihydroxy-9-methoxy pterocarpan] | 84.6 ± 0.6%

Same assay, conditions: 300 μM; L-DOPA substrate; read-out: Mushroom Tyrosinase Inhibition % Inhibition (at 300 μM)

Compound | inhibition at 300 µM
COc1ccc(-c2coc3cc(O)cc(O)c3c2=O)c(OC)c1O [Compound 7, Khrinone C] | 2%

Same assay, conditions: 500 μM; L-DOPA substrate

Compound | inhibition at 500 µM
COc1ccc([C@H]2COc3cc(O)ccc3C2=O)c(OC)c1 [Compound 14, (3S)-Sativanone] | 13%

Same assay, conditions: L-DOPA substrate; read-out: Mushroom Tyrosinase Inhibition IC50

Compound | IC50
Alpinetin [Compound 26] | 450 ± 48.5 µM

Same assay, conditions: o-diphenolase, L-DOPA substrate

Compound | inhibitory activity on mushroom tyrosinase (in words)
COc1ccc(-c2coc3cc(O)cc(O)c3c2=O)c(OC)c1O [Compound 7, Khrinone C] | did not show inhibitory activity

Same assay, conditions: pre-incubation with enzyme in absence of L-DOPA; coloured product at 475 nm

Compound | behaviour as substrate of mushroom tyrosinase (in words)
O=c1c(-c2ccc(O)cc2)coc2cc(O)cc(O)c12 [Compound 4, Genistein] | chromogenic substrate analogs
O=C1C[C@@H](c2ccc(O)cc2)Oc2cc(O)cc(O)c21 [Compound 25, (2S)-Naringenin] | chromogenic substrate analogs

System: B16-F10 melanoma cells
Assay: Cell viability assay (PrestoBlue resazurin);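 further: mouse B16-F10 melanoma cells exposed to test samples for 72 h, with viability read as fluorescence of resorufin formed when living cells reduce PrestoBlue resazurin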
Assay type: cell-based, Mus musculus (mouse)
Settings: 15 μM

Compound | % Cell Viability | toxicity to B16-F10 cells (in words)
Alpinetin [Compound 26] | 77.0 ± 12.7% | –
COc1cc2c(cc1O)[C@@H]1COc3cc(O)ccc3[C@@H]1O2 [Compound 27, (6aR,11aR)-3,8-Dihydroxy-9-methoxy pterocarpan] | – | no toxicity

Same assay, conditions: 30 μM

Compound | % Cell Viability
Alpinetin [Compound 26] | 77.1 ± 10.2%

Same assay, conditions: 30 μM; 72 h; relative to control

Compound | % Cell Viability
COc1cc(O)c(-c2coc3cc(O)cc(O)c3c2=O)cc1O [Compound 5, Khrinone B] | 62.3 ± 15.1%
COc1ccc([C@H]2COc3cc(O)ccc3C2=O)c(OC)c1 [Compound 14, (3S)-Sativanone] | 64.3 ± 23.7%
COc1ccc(C2COc3c(ccc(O)c3OC)C2)c(O)c1O [Compound 21, (3R,S)-3′-Hydroxy-8-methoxy vestitol] | 62.4 ± 3.2%
COc1cc2c(cc1O)[C@@H]1COc3cc(O)ccc3[C@@H]1O2 [Compound 27, (6aR,11aR)-3,8-Dihydroxy-9-methoxy pterocarpan] | 14.5 ± 0.9%

System: not listed separately
Assay: Cell viability assay (PrestoBlue resazurin);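 further: mouse B16-F10 melanoma cells exposed to test samples for 72 h, with viability read as fluorescence of resorufin formed when living cells reduce PrestoBlue resazurin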
Assay type: cell-based, Mus musculus (mouse)
Settings: mouse, B16-F10 melanoma cells, 15 μM; 72 h; relative to control; read-out: % Cell Viability

Compound | viability at 72 h, 15 µM
COc1cc(O)c(-c2coc3cc(O)cc(O)c3c2=O)cc1O [Compound 5, Khrinone B] | 95.1 ± 5.4%
COc1ccc([C@H]2COc3cc(O)ccc3C2=O)c(OC)c1 [Compound 14, (3S)-Sativanone] | 107 ± 10.6%
COc1ccc(C2COc3c(ccc(O)c3OC)C2)c(O)c1O [Compound 21, (3R,S)-3′-Hydroxy-8-methoxy vestitol] | 102.9 ± 1%
COc1ccc(-c2coc3cc(O)cc(O)c3c2=O)c(OC)c1O [Compound 7, Khrinone C] | 93.3 ± 2%
O=C1C[C@@H](c2ccc(O)cc2)Oc2cc(O)cc(O)c21 [Compound 25, (2S)-Naringenin] | 94.3 ± 2%
COc1cc2c(cc1O)[C@@H]1COc3cc(O)ccc3[C@@H]1O2 [Compound 27, (6aR,11aR)-3,8-Dihydroxy-9-methoxy pterocarpan] | 106 ± 4.9%

Same assay, conditions: mouse, B16-F10 melanoma cells, 30 μM; 72 h; relative to control; read-out: % Cell Viability

Compound | viability at 72 h, 30 µM
COc1cc(O)c(-c2coc3cc(O)cc(O)c3c2=O)cc1O [Compound 5, Khrinone B] | 60%
COc1ccc([C@H]2COc3cc(O)ccc3C2=O)c(OC)c1 [Compound 14, (3S)-Sativanone] | 60%
COc1ccc(C2COc3c(ccc(O)c3OC)C2)c(O)c1O [Compound 21, (3R,S)-3′-Hydroxy-8-methoxy vestitol] | 60%
COc1ccc(-c2coc3cc(O)cc(O)c3c2=O)c(OC)c1O [Compound 7, Khrinone C] | 93.4 ± 2%
O=C1C[C@@H](c2ccc(O)cc2)Oc2cc(O)cc(O)c21 [Compound 25, (2S)-Naringenin] | 98.1 ± 0.5%
COc1cc2c(cc1O)[C@@H]1COc3cc(O)ccc3[C@@H]1O2 [Compound 27, (6aR,11aR)-3,8-Dihydroxy-9-methoxy pterocarpan] | 14%

Same assay, conditions: mouse; 15 μM; 72 h; relative to control; read-out: % Cell Viability

Compound | viability at 72 h, 15 µM
O=c1c(-c2ccc(O)cc2)coc2cc(O)cc(O)c12 [Compound 4, Genistein] | 128 ± 3.5%

Same assay, conditions: mouse; 30 μM; 72 h; relative to control; read-out: % Cell Viability

Compound | viability at 72 h, 30 µM
O=c1c(-c2ccc(O)cc2)coc2cc(O)cc(O)c12 [Compound 4, Genistein] | 93.8 ± 5.7%

Target: mushroom tyrosinase
Assay: not given
Settings: read-out: monophenolase activity of mushroom tyrosinase IC50; cited from earlier work

Compound | IC50
O=c1c(-c2ccc(O)cc2)coc2cc(O)cc(O)c12 [Compound 4, Genistein] | 822 µM

Source: article PMC6100075, “Correlation between the Potency of Flavonoids on Mushroom Tyrosinase Inhibitory Activity and Melanin Synthesis in Melanocytes” (Molecules : A Journal of Synthetic Chemistry and Natural …, 2018)
